For orientation: Ki means a measure of affinity in units of concentration, obtained from inhibition or displacement.

Molecules are shown by their SMILES. Positions count from the first letter of the chain named.

Here are results for 16 compounds from ChEMBL document CHEMBL3997776, “Oxime Ethers of (E)-11-Isonitrosostrychnine as Highly Potent Glycine Receptor Antagonists” (J Nat Prod, 2016).

For one experiment, the species on record is Homo sapiens. The experiment can be described thus: Selectivity ratio of IC50 for recombinant human glycine receptor alpha 1 beta expressed in human tsA201 cells to IC50 for recombinant human glycine receptor alpha 1 expressed in human tsA201 cells. It counts as cell-based.
In experiment [1] the target is T1, Glycine receptor subunit alpha-1 (Homo sapiens, UniProt P23415).
T1 sequence (P23415 whole entry): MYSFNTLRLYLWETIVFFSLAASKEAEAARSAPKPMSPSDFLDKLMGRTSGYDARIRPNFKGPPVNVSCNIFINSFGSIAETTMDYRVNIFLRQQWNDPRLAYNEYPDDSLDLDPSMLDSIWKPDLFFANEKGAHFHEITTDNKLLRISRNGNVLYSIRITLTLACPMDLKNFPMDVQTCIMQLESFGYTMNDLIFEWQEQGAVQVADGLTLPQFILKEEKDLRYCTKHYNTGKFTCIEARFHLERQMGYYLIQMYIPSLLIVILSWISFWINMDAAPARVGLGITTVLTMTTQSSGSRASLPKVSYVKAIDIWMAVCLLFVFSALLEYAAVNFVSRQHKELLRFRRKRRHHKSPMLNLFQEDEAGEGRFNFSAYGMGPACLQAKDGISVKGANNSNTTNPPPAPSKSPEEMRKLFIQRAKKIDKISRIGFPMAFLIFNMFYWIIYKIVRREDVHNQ
Description: Antagonist activity at recombinant human glycine receptor alpha 1 expressed in human tsA201 cells assessed as inhibition of glycine-induced receptor activation after 30 mins by FLIPR membrane potential blue assay. Format: cell-based.

In experiment [2] the target is T2, Glycine receptor (alpha-1/beta) (Homo sapiens, UniProt P23415+P48167). The experiment can be described thus: Antagonist activity at recombinant human glycine receptor alpha 1 beta expressed in human tsA201 cells assessed as inhibition of glycine-induced receptor activation after 30 mins by FLIPR membrane potential blue assay. It counts as cell-based.
The target in experiment [3] is T1, Glycine receptor subunit alpha-1. Description: Antagonist activity at recombinant human glycine receptor alpha 1 expressed in HEK293 cells assessed as inhibition of glycine-induced current at -50 mV holding potential by whole cell patch-clamp method. Format: cell-based. (In patch-clamp work, channel activity is measured electrically.)
Experiment [4] shares this target. The experiment can be described thus: Displacement of [3H]strychnine from recombinant human glycine receptor alpha 1 expressed in HEK293 cell membranes after 30 mins by liquid scintillation counting method. On the technique in general: Loss of bound radioactivity is the signal in a displacement assay; it reports binding, not function.
In experiment [5] the target is T2, Glycine receptor (alpha-1/beta). The experiment can be described thus: Antagonist activity at recombinant human glycine receptor alpha 1 beta expressed in HEK293 cells assessed as inhibition of glycine-induced current at -50mV holding potential by whole cell patch-clamp method. It counts as cell-based.
For experiment [6], the target named is T3, Glycine receptor subunit alpha-1 (Rattus norvegicus, UniProt P07727).
T3 sequence (P07727 whole entry): T1 sequence (P23415 whole entry) with L9F, E27D, E362D, A365G, S396N, P402A, Q457K
Description: Displacement of [3H]strychnine from glycine receptor alpha 1 in rat brain synaptic membranes

T2 sequence (P48167 whole entry, one chain of several): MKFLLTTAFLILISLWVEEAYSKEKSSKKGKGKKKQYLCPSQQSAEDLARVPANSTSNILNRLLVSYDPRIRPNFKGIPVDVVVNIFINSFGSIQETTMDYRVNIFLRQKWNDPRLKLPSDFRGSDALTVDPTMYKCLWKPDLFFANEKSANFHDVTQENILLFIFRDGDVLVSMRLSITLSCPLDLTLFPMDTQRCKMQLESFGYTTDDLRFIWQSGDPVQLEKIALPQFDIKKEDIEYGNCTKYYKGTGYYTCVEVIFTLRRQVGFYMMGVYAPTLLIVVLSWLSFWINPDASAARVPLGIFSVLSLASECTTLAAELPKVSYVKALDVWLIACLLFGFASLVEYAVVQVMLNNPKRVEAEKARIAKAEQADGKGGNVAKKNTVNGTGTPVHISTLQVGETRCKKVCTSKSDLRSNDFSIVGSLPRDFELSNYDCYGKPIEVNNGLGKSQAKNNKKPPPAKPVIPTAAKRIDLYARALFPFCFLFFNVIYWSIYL

`CCCCCO/N=C1/C(=O)N2c3ccccc3[C@@]34CCN5CC6=CCO[C@@H]1[C@@H]([C@H]23)[C@H]6C[C@H]54`: the Ratio IC50 in the experiment filed under Homo sapiens was 3 to 4. Moreover, the IC50 is 250 nM in experiment [1] (read-out: IC50) and 710 nM in experiment [2].

As to `CCC(=O)Nc1ccc2c(c1)[C@@]13CCN4CC5=CCO[C@H]6CC(=O)N2[C@H]1[C@H]6[C@H]5C[C@H]43`, the IC50 in experiment [3] came to 201 nM; in experiment [5], 311 nM; in experiment [1] (read-out: IC50) it was 540 nM; in experiment [2] it was 940 nM. Also, the Ki in experiment [4] stood at 67 nM.

On to `Nc1ccc2c(c1)[C@@]13CCN4CC5=CCO[C@H]6CC(=O)N2[C@H]1[C@H]6[C@H]5C[C@H]43`, for which the IC50 worked out at 76 nM in experiment [3], 97 nM in experiment [5], 77 nM in experiment [1] (read-out: IC50) and 270 nM in experiment [2]. The Ratio IC50 in the experiment listed under Homo sapiens lay in the range of 3 to 4. In addition, the Ki in experiment [6] stood at 18 nM.

In the case of `C#CCO/N=C1/C(=O)N2c3ccccc3[C@@]34CCN5CC6=CCO[C@@H]1[C@@H]([C@H]23)[C@H]6C[C@H]54`, the IC50 in experiment [3] stood at 59 nM; in experiment [5] it was 43 nM; in experiment [1] (read-out: IC50) it was 52 nM; in experiment [2], 240 nM.

For the compound `CC(C)CO/N=C1/C(=O)N2c3ccccc3[C@@]34CCN5CC6=CCO[C@@H]1[C@@H]([C@H]23)[C@H]6C[C@H]54`, the Ratio IC50 in the experiment listed under Homo sapiens is 3 to 4. Moreover, the IC50 is 260 nM in experiment [1] (read-out: IC50) and 1100 nM in experiment [2].

For the compound `O=C1C[C@@]23c4ccccc4N4C(=O)C[C@@H]5OCC=C6CN1[C@H]2C[C@@H]6[C@@H]5[C@H]43`, the values for the IC50 in experiment [1] (read-out: IC50) and in experiment [2] were 6900 nM and 9800 nM, respectively.

Take `COC(=O)CCCCO/N=C1/C(=O)N2c3ccccc3[C@@]34CCN5CC6=CCO[C@@H]1[C@@H]([C@H]23)[C@H]6C[C@H]54`: the figures for the IC50 in experiment [1] (read-out: IC50) and in experiment [2] were 720 nM and 1500 nM, respectively.

For the compound `CCC[N+]12CC[C@@]34c5ccccc5N5C(=O)C[C@@H]6OCC=C(C1)[C@H](C[C@@H]32)[C@@H]6[C@H]54` (stereo partly specified), the IC50 in experiment [3] worked out at 4590 nM; in experiment [5] it was 6530 nM; in experiment [1] (read-out: IC50), 10000 nM; in experiment [2], 13000 nM.

Regarding `O=C1/C(=N/OCCc2ccccc2)[C@@H]2OCC=C3CN4CC[C@]56c7ccccc7N1[C@H]5[C@H]2[C@H]3C[C@H]46`, the IC50 in experiment [1] (read-out: IC50) was 690 nM; in experiment [1] (read-out: pIC50 (converted)), 708 nM; in experiment [2], 780 nM.

Consider `O=C1C[C@@H]2OCC=C3CN4CC[C@]56c7ccccc7N1[C@H]5[C@H]2[C@H]3C[C@H]46` [STRYCHNINE], for which the IC50 was found to be 51 nM in experiment [3], 58 nM in experiment [5], 93 nM in experiment [1] (read-out: IC50) and 180 nM in experiment [2]. In addition, the Ki in experiment [4] is 23 nM; in experiment [6] it was 12 nM.

Consider `O=C1/C(=N/OCc2ccccc2)[C@@H]2OCC=C3CN4CC[C@]56c7ccccc7N1[C@H]5[C@H]2[C@H]3C[C@H]46`, for which the IC50 was determined as 170 nM in experiment [1] (read-out: IC50) and 310 nM in experiment [2].

On to `CCCO/N=C1/C(=O)N2c3ccccc3[C@@]34CCN5CC6=CCO[C@@H]1[C@@H]([C@H]23)[C@H]6C[C@H]54`, for which the IC50 turned out to be 109 nM in experiment [3], 116 nM in experiment [5], 110 nM in experiment [1] (read-out: IC50) and 350 nM in experiment [2]. Further, the Ki in experiment [4] was determined as 241 nM. Moreover, the Ratio IC50 in the experiment listed under Homo sapiens is 3 to 4.

`CO/N=C1/C(=O)N2c3ccccc3[C@@]34CCN5CC6=CCO[C@@H]1[C@@H]([C@H]23)[C@H]6C[C@H]54`: the IC50 came to 75 nM in experiment [3], 56 nM in experiment [5], 100 nM in experiment [1] (read-out: IC50) and 210 nM in experiment [2]. For the same compound, the Ki in experiment [4] turned out to be 189 nM.

For `CCCCO/N=C1/C(=O)N2c3ccccc3[C@@]34CCN5CC6=CCO[C@@H]1[C@@H]([C@H]23)[C@H]6C[C@H]54`, the IC50 in experiment [1] (read-out: IC50) was 370 nM; in experiment [1] (read-out: pIC50 (converted)) it was 380 nM; in experiment [2] it was 880 nM.

Regarding `COC(=O)CO/N=C1/C(=O)N2c3ccccc3[C@@]34CCN5CC6=CCO[C@@H]1[C@@H]([C@H]23)[C@H]6C[C@H]54`, the IC50 in experiment [1] (read-out: IC50) turned out to be 220 nM; in experiment [2], 670 nM.

Consider `C=CCO/N=C1/C(=O)N2c3ccccc3[C@@]34CCN5CC6=CCO[C@@H]1[C@@H]([C@H]23)[C@H]6C[C@H]54`, for which the IC50 amounted to 49 nM in experiment [3], 46 nM in experiment [5], 95 nM in experiment [1] (read-out: IC50) and 150 nM in experiment [2]. For the same compound, the Ki in experiment [4] came to 370 nM.
